Source: paper PMC12518996 (Frontiers in Pharmacology, 2025)
Like-named read-outs stand apart in the source and are kept apart here.

Legend:
in vitro [1] = conditions: male, Sprague-Dawley, rat, cryopreserved hepatocytes
in vitro [2] = conditions: male, CD-1, mouse, cryopreserved hepatocytes
in vitro [3] = conditions: both, human, cryopreserved hepatocytes
CYP1A2 [4] = molecular target: T1, CYP1A2 (Homo sapiens, UniProt P05177); test: biochemical
T1 sequence (P05177 1-516): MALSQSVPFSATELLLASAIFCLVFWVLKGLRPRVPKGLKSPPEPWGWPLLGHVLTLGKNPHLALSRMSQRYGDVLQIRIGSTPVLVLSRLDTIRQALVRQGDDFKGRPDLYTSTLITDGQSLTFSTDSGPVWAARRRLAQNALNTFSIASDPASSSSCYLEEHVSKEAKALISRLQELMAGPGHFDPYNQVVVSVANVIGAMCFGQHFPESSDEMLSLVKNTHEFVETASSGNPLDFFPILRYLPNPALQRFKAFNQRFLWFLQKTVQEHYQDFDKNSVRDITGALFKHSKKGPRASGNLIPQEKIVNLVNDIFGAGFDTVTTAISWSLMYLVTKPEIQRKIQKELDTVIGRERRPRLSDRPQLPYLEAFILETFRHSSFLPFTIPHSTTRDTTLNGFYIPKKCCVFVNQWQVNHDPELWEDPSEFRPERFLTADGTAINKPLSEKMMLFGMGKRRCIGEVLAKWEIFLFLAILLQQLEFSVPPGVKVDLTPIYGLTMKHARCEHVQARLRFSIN

CYP2E1 [5] = molecular target: CYP2E1 (Homo sapiens, UniProt P05181); test: biochemical
Sequence of CYP2E1 (Homo sapiens, UniProt P05181) (P05181 whole entry): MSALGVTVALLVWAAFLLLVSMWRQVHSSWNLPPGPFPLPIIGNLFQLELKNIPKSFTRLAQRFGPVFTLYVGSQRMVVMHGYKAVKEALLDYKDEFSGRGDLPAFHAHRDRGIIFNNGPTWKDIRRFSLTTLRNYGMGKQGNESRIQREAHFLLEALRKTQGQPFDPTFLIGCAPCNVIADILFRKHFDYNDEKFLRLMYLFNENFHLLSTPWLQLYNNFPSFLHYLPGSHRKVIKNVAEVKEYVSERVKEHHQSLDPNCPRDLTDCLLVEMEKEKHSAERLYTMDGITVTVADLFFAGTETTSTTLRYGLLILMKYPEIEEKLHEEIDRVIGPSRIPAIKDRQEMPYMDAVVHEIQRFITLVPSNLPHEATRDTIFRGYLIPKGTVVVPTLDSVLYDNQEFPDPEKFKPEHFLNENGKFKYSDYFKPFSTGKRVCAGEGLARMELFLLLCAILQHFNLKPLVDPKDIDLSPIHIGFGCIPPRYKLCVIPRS

CYP2A6 [6] = molecular target: T2, CYP2A6 (Mus musculus, UniProt P20852); test: biochemical
T2 sequence (P20852 1-494): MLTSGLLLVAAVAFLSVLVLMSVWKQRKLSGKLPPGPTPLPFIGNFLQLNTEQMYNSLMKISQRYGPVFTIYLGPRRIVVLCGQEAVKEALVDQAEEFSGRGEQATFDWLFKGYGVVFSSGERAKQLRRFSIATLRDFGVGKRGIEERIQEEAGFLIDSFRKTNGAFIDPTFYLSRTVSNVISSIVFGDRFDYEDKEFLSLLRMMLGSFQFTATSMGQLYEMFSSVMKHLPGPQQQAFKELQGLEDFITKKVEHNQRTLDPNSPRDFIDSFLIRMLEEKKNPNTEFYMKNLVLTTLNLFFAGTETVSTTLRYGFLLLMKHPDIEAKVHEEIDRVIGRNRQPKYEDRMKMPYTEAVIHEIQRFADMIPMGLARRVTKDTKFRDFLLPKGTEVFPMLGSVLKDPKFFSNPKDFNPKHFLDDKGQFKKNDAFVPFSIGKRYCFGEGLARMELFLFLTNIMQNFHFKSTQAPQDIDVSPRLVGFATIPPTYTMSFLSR

CYP2E1 [7] = molecular target: CYP2E1 (Mus musculus, UniProt Q05421); test: biochemical
Sequence of CYP2E1 (Mus musculus, UniProt Q05421) (Q05421 whole entry): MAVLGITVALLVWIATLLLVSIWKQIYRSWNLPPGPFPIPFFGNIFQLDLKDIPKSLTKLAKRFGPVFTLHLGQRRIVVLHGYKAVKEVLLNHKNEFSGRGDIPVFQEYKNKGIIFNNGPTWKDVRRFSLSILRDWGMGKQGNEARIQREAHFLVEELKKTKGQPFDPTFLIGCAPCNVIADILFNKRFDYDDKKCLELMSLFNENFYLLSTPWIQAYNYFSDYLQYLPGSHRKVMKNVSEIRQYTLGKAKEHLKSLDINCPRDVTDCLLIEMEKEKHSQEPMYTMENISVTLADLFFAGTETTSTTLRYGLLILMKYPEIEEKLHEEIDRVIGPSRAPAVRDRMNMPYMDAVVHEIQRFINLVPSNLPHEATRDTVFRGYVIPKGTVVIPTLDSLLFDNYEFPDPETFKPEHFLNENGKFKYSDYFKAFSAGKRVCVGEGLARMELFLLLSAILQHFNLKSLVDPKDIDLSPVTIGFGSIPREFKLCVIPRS

[8] = tested on: rat cryopreserved hepatocytes; test: Metabolic stability in rat cryopreserved hepatocytes
[9] = tested on: mouse cryopreserved hepatocytes; test: Metabolic stability in mouse cryopreserved hepatocytes
[10] = tested on: human cryopreserved hepatocytes; test: Metabolic stability in human cryopreserved hepatocytes
CYP2A6 [11] = molecular target: T3, CYP2A6 (Homo sapiens, UniProt P11509); test: Inhibition of CYP2A6 in human hepatocytes (coumarin probe)
T3 sequence (P11509 1-494): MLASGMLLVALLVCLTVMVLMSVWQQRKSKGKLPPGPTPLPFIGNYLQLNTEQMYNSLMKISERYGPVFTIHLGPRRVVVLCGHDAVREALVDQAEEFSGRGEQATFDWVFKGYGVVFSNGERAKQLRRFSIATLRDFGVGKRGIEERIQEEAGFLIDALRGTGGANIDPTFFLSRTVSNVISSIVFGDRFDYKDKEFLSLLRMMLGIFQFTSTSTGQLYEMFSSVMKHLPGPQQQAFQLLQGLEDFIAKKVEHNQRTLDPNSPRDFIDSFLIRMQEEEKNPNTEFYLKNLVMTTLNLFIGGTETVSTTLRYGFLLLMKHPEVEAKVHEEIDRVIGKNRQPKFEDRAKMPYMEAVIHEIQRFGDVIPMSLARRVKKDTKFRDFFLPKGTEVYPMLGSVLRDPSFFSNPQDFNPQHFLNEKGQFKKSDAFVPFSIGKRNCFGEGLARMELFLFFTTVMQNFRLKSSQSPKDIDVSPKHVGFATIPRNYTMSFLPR

CYP3A4 = test: Inhibition of CYP3A4 in CD1 mouse hepatocytes (midazolam probe); conditions: both, pooled cryopreserved CD1 mouse hepatocytes, probe midazolam
CYP1A2 [12] = molecular target: T4, CYP1A2 (Mus musculus, UniProt P00186); test: Inhibition of CYP1A2 in CD1 mouse hepatocytes (phenacetin probe)
T4 sequence (P00186 1-513): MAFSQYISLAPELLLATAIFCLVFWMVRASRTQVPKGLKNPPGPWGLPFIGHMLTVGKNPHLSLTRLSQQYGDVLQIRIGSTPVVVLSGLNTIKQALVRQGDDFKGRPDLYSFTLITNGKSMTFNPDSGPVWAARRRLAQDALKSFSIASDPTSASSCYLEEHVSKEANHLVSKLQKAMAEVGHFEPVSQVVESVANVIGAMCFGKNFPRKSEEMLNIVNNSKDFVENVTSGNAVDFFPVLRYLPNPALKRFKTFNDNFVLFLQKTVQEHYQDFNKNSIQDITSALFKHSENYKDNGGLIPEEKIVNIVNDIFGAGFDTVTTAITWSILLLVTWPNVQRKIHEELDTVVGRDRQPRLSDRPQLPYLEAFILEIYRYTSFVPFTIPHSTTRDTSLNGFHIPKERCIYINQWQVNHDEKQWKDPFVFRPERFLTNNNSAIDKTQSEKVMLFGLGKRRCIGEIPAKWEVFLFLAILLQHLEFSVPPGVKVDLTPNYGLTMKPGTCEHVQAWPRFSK

human liver microsomes = test: Metabolite formation in human liver microsomes with CYP-selective inhibitors; conditions: trazodone 4 μM, inhibitor at the table's Conc. (1-60 µM), versus control without inhibitor
Procedure: The incubation was conducted at 37 °C for 20 min with gentle shaking. […] Reactions were terminated by adding an equal volume of acetonitrile to precipitate proteins, followed by centrifugation at 13,000 × g for 10 min.
Metabolites were quantified under the same UHPLC-Orbitrap conditions described in § 2.2, ensuring consistent chromatography and MS performance across all inhibitor experiments. Metabolite levels in inhibitor-treated samples were compared to control samples (no inhibitor) to determine the extent of each CYP isoform involvement in metabolite production.

CYP2A6 [13] = molecular target: T2, CYP2A6; conditions: read-out: IC50 value (µM), CYP2A6; CD1 mouse hepatocytes; probe coumarin; 0.1-100 μM
[14] = trazodone 10 μM, 0.5 million cells/mL, first-order elimination constant

Compound `O=c1n(CCCN2CCN(c3cccc(Cl)c3)CC2)nc2ccccn12` [Trazodone] has a half-life at 10 µM (in vitro [1]) of 9.22 min, a hepatocyte CLint at 10 µM (in vitro [1]) of 150 µL/min/1e6 cells and a remaining at 3 h, 10 µM (in vitro [1]) of 0.521%. For the same compound, the half-life at 10 µM (in vitro [2]) was 45.2 min, the hepatocyte CLint at 10 µM (in vitro [2]) was 30.7 µL/min/1e6 cells and the remaining at 3 h, 10 µM (in vitro [2]) was 7.09%. The half-life at 10 µM (in vitro [3]) was 124 min, the hepatocyte CLint at 10 µM (in vitro [3]) was 11.2 µL/min/1e6 cells and the remaining at 3 h, 10 µM (in vitro [3]) was 35.8%. For the same compound, the IC50 (CYP1A2 [4]) was > 100 µM, the IC50 (CYP2E1 [5]) was 6.18 µM and the IC50 (CYP2A6 [6]) was 12.7 µM. For the same compound, the IC50 (CYP2E1 [7]) was 14.6 µM, the “CLint (mL/min/g liver)” value ([8]; rat cryopreserved hepatocytes, scaling factor 108 million cells/g liver) was 16.2 mL/min/g liver and the “k” value ([8]; rat cryopreserved hepatocytes, trazodone 10 μM, 0.5 million cells/mL, first-order elimination constant) was 0.075 min⁻¹. For the same compound, the “CLint, rat hepatocytes versus human hepatocytes” value ([8]; ratio of clearance rates rat/human hepatocytes) was “over 12 fold”, the “CLint (mL/min/g liver)” value ([9]; scaling factor 135 million cells/g liver) was 4.14 mL/min/g liver and the “k” value [9, 14] was 0.015 min⁻¹. The “CLint (mL/min/g liver)” value ([10]; scaling factor 118 million cells/g liver) was 1.31 mL/min/g liver, the “k” value [10, 14] was 0.006 min⁻¹ and the IC50 (CYP2A6 [11]) was > 100 µM. For the same compound, the IC50 (CYP3A4) was […] and the IC50 (CYP1A2 [12]) was > 100 µM.
`O=c1c2ccccc2nc2n1CCc1c-2[nH]c2ccccc12` [Rutaecarpine] gave an IC50 (CYP1A2 [12]) of 11.8 µM.
In the case of `OC(Cn1cncn1)(Cn1cncn1)c1ccc(F)cc1F` [Fluconazole], the “remaining percentage formation of M9 (as LC/MS peak areas)” value (human liver microsomes) is reported as “moderate inhibition”.
For `N[C@@H]1C[C@H]1c1ccccc1` (racemic) [Tranylcypromine], the IC50 (CYP2A6 [13]) was 1.49 µM and the IC50 (CYP2A6 [11]; read-out: IC50 value (µM), CYP2A6, human hepatocytes, probe coumarin, 0.1-100 μM) was 1.72 µM.
